Laboratory results from patent US20050267156A1, “Broadspectrum 2-amino-benzothiazole sulfonamide hiv protease inhibitors” (Tibotec Pharmaceuticals Ltd., priority 2002, published 2005).
Like-named read-outs stand apart in the source and are kept apart here.

Legend:
HIV-1 strain LAI = assay: Cellular anti-HIV assay (MT4/MTT), wild type; type: cell-based; conditions: Human immunodeficiency virus 1; wild type HIV-1 strain LAI, MT4 cells; read-out: WT (pEC50) (converted)
mutant HIV strain A = assay: microbe, parasite or virus in culture; type: cell-based; conditions: for EC50: Human immunodeficiency virus 1, MT4, read-out: pEC50 Strain A, mutant HIV strain A, MT4 cells (converted)
mutant HIV strain B = assay: microbe, parasite or virus in culture; type: cell-based
mutant HIV strain C = assay: microbe, parasite or virus in culture; type: cell-based; conditions: for EC50: Human immunodeficiency virus 1, MT4, read-out: pEC50 Strain C, mutant HIV strain C, MT4 cells (converted)
mutant HIV strain D = assay: microbe, parasite or virus in culture; type: cell-based; conditions: for EC50: Human immunodeficiency virus 1, MT4, read-out: pEC50 Strain D, mutant HIV strain D, MT4 cells (converted)
mutant HIV strain E = assay: microbe, parasite or virus in culture; type: cell-based; conditions: for EC50: Human immunodeficiency virus 1, MT4, read-out: pEC50 Strain E, mutant HIV strain E, MT4 cells (converted)
mutant HIV strain F = assay: microbe, parasite or virus in culture; type: cell-based; conditions: Human immunodeficiency virus 1, MT4, read-out: pEC50 Strain F, mutant HIV strain F, MT4 cells (converted)
[1] = Toxicity on mock-infected cells (MTT); type: cell-based; conditions: human
Pharmacokinetics in rats = type: in vivo, Whistar rats; conditions: rat
Procedure: (§1) The pharmacokinetic properties of some compounds of formula (I) were tested on rats and dogs. The compounds were evaluated in Whistar rats, source Iffa Credo, weighing approximately 350 g. Before dosing the animals were fasted overnight (approximately 12 h fasting period). The compounds were dissolved in DMSO or PEG 400. The results represented in the table concern the results from the oral or intra-peritoneal dosing of the compounds. Blood was sampled at 30 min, 1 h, 2 h, 3 h, no pre-dose sample was taken. The amount of the compound in the biological sample was determined using LC-MS. In the table below “or” means oral dosing, “ip” means intraperitoneal dosing, “mpk” means mg per kilogram.

Pharmacokinetics in dogs = type: in vivo; conditions: dog, or
Procedure: as §1

[2] = system: mutant HIV protease viruses; assay: Panel of more than 20 mutant proteases; type: cell-based
[3] = FR=EC50 (mutant strain)/EC50 (HIV-1 strain LAI)

CNc1nc2ccc(S(=O)(=O)N(CC(C)C)C[C@@H](O)[C@H](Cc3ccccc3)NC(=O)OCc3cncs3)cc2s1 [Compound 18, {(1S,2R)-1-benzyl-2-hydroxy-3-[isobutyl-(2-methylamino-benzothiazole-6-sulfonyl)-amino]-propyl}-carbamic acid thiazol-5-ylmethyl ester]
EC50 (HIV-1 strain LAI): 1.91 nM | EC50 (mutant HIV strain A): 30.9 nM | pEC50 Strain B (mutant HIV strain B; mutant HIV strain B, MT4 cells): 8.21 | EC50 (mutant HIV strain C): 7.41 nM | EC50 (mutant HIV strain D): 21.4 nM | EC50 (mutant HIV strain E): 9.12 nM | EC50 (mutant HIV strain F): 148 nM | CC50 at 5 days [1]: 85100 nM | Cmax (Pharmacokinetics in rats; Whistar, blood, ip, 10 mpk, ip, DMSO, results normalized to 10 mpk, read-out: Cmax): 1140 ng/mL | Cmax (Pharmacokinetics in rats; Whistar, blood, po, 10 mpk, or, DMSO, results normalized to 10 mpk, read-out: Cmax): 396 ng/mL | Cmax (Pharmacokinetics in rats; Whistar, blood, po, 10 mpk, or, PEG400, results normalized to 10 mpk, read-out: Cmax): 668 ng/mL | Cmax (Pharmacokinetics in dogs; blood, po, 10 mpk, DMSO, results normalized to 10 mpk, read-out: Cmax): 15 ng/mL | Cmax (Pharmacokinetics in dogs; blood, po, 10 mpk, PEG400, results normalized to 10 mpk, read-out: Cmax): 42 ng/mL

CNc1nc2ccc(S(=O)(=O)N(CC(C)C)C[C@@H](O)[C@H](Cc3ccccc3)NC(=O)O[C@H]3CCOC3)cc2s1 [Compound 21, {(1S,2R)-1-benzyl-2-hydroxy-3-[isobutyl-(2-methylamino-benzothiazole-6-sulfonyl)-amino]-propyl}-carbamic acid(S)(tetrahydro-furan-3-yl)ester]
Cmax (Pharmacokinetics in rats; ip, DMSO, results normalized to 10 mpk): 1763 ng/mL | Cmax (Pharmacokinetics in rats; or, DMSO, results normalized to 10 mpk): 1139 ng/mL | Cmax (Pharmacokinetics in rats; or, PEG400, results normalized to 10 mpk): 1315 ng/mL | Cmax (Pharmacokinetics in dogs; PEG400 - 2 animals, results normalized to 10 mpk): 61 ng/mL | Cmax (Pharmacokinetics in dogs; PEG400 - 4 animals, results normalized to 10 mpk): 184 ng/mL

CC(C)CN(C[C@@H](O)[C@H](Cc1ccccc1)NC(=O)OC1COC2OCCC12)S(=O)(=O)c1ccc2nc(N)sc2c1 (stereo partly drawn) [Compound 1, {(1S,2R)-3-[(2-amino-benzothiazole-6-sulfonyl)-isobutyl-amino]-1-benzyl-2-hydroxypropyl}-carbamic acid hexahydro-furo[2,3-b]furan-3-yl ester]
EC50 (HIV-1 strain LAI): 5.5 nM | fold resistance Strain A (mutant HIV strain A; [3]): 0.5 | EC50 (mutant HIV strain A): 2.95 nM | fold resistance Strain B (mutant HIV strain B; [3]): 0.7 | EC50 (mutant HIV strain B; Human immunodeficiency virus 1, MT4, read-out: pEC50 Strain B, mutant HIV strain B, MT4 cells (converted)): 3.63 nM | fold resistance Strain C (mutant HIV strain C; [3]): 0.8 | EC50 (mutant HIV strain C): 4.17 nM | fold resistance Strain D (mutant HIV strain D; [3]): 0.4 | EC50 (mutant HIV strain D): 2.24 nM | fold resistance Strain E (mutant HIV strain E; [3]): 0.6 | EC50 (mutant HIV strain E): 3.09 nM | CC50 at 5 days [1]: 69200 nM | IC50 ([2]; Human immunodeficiency virus 1, read-out: pIC50 for the most resistant mutant (converted)): 7.59 nM | IC50 ([2]; Human immunodeficiency virus 1, read-out: pIC50 for the most sensitive mutant (converted)): 0.741 nM
